In ChEMBL document CHEMBL4184137, “Lysine Deacetylase Inhibitors in Parasites: Past, Present, and Future Perspectives” (J Med Chem, 2017):

Assays:
Plasmodium falciparum [1] = experiment: Antimalarial activity against Plasmodium falciparum using Malstat reagent by parasite lactate dehydrogenase assay; assay type: functional, organism-based
Vero = experiment: Cytotoxicity against African green monkey Vero cells by neutral red assay; assay type: cell-based; details: Chlorocebus sabaeus
[2] = Selectivity index, ratio of IC50 for African green monkey Vero cells to IC50 for Plasmodium falciparum; assay type: toxicity; details: read-out: Ratio IC50
Histone deacetylase = molecular target: T1, Histone deacetylase (Plasmodium falciparum, UniProt Q9XYC7); experiment: Inhibition of HDAC1 in Plasmodium falciparum 3D7 nuclear extract using Ac-RGK(Ac)-AMC fluorogenic peptide as substrate preincubated for 1 hr followed by substrate addition measured after 10 min by fluorescence assay
T1 sequence (Q9XYC7 whole entry): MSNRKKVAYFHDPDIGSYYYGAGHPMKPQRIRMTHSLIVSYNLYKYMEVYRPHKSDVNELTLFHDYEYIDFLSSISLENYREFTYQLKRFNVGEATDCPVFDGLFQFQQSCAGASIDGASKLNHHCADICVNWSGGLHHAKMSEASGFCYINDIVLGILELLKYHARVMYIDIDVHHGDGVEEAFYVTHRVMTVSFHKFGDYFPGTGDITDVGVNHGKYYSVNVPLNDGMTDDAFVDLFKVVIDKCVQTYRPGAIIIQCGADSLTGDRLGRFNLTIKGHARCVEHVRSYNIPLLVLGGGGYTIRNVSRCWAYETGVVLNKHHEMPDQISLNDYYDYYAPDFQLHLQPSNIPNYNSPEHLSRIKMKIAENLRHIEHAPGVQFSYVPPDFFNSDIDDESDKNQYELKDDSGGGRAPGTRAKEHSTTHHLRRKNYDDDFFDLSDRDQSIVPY

[3] = molecular target: T2, Histone deacetylase (Plasmodium falciparum) (UniProt Q9XYC7); experiment: Inhibition of recombinant HDAC1 in recombinant Plasmodium falciparum at 1 uM using Ac-RGK(Ac)-AMC fluorogenic peptide as substrate preincubated for 1 hr followed by substrate addition measured after 10 min by fluorescence assay
T2 sequence (whole entry): T1 sequence (Q9XYC7 whole entry)

[4] = Selectivity index, ratio of IC50 for human NFF cells to IC50 for Trypanosoma brucei brucei; assay type: toxicity; details: read-out: Selectivity Index
[5] = Selectivity index, ratio of IC50 for HEK293 cells to IC50 for Trypanosoma brucei brucei; assay type: toxicity; details: human, read-out: Selectivity Index
[6] = Selectivity index, ratio of IC50 for human NFF cells to IC50 for Plasmodium falciparum; assay type: toxicity; details: read-out: Ratio IC50
[7] = Selectivity index, ratio of IC50 for HEK293 cells to IC50 for Plasmodium falciparum; assay type: toxicity; details: human, read-out: Ratio IC50
Plasmodium falciparum [8] = experiment: Antimalarial activity against asexual-stage of Plasmodium falciparum 3D7 after 24 hrs by microbeta scintillation counting-based [3H]-hypoxanthine incorporation assay; assay type: functional, organism-based
Plasmodium falciparum [9] = experiment: Gametocytocidal activity against transgenic GFP-fused Plasmodium falciparum NF54 […] gametocytes after 72 hrs by Mitotracker Red CMH2XRos staining-based confocal microscopic method; assay type: functional, organism-based; details: NF54, 72 h
NFF = experiment: Cytotoxicity against human NFF cells after 72 hrs by SRB assay; assay type: cell-based
[10] = Selectivity index, ratio of IC50 for human NFF cells to IC50 for asexual-stage of Plasmodium falciparum 3D7; assay type: toxicity; details: read-out: Ratio IC50
[11] = Selectivity index, ratio of IC50 for human NFF cells to IC50 for transgenic GFP-fused Plasmodium falciparum NF54 […] gametocyte; assay type: toxicity; details: read-out: Ratio IC50

`Cn1cc(C(=O)Cc2ccccc2)cc1/C=C/C(=O)NO` showed an IC50 (Plasmodium falciparum [1]) of 1.2 to 4 µM, an IC50 (Vero) greater than 20 µM and a selectivity ratio [2] of 5 to 17.

`C/C=C1\NC(=O)[C@H]2CSSCC/C=C/[C@H](CC(=O)N[C@H](C(C)C)C(=O)N2)OC(=O)[C@H](C(C)C)NC1=O` [ROMIDEPSIN] showed an IC50 (Histone deacetylase) of 0.0009 µM, an inhibition [3] of 48% and a selectivity ratio [4] of less than 1. It also gave a selectivity ratio [5] of less than 1, a selectivity ratio [6] of less than 1 and a selectivity ratio [7] of less than 1.

For `CC(C)(C)c1ccc(NC(=O)NOCCCCCC(=O)NO)cc1`, the IC50 (Plasmodium falciparum [8]) was 0.16 µM, the IC50 (Plasmodium falciparum [9]) was 3.45 µM and the IC50 (NFF) was 4.9 µM. It also gave a selectivity ratio [10] of 31 and a selectivity ratio [11] of 2.
